Assay results from the CheMixHub viscosity set.

Assay: xn = mol fraction of the nth substance listed

CCCCN + CCC(C)O
303.15 K, 101 kPa
Conditions	viscosity [mPa·s]
x1 = 0.01013	2.438
x1 = 0.02003	2.41
x1 = 0.03045	2.381
x1 = 0.03818	2.364
x1 = 0.05108	2.332
x1 = 0.05904	2.313
x1 = 0.07204	2.283
x1 = 0.08279	2.26
x1 = 0.09543	2.229

CCCC(=O)OCC + CCCCCC
303.15 K, 101 kPa
Conditions	viscosity [mPa·s]
x1 = 0.1354	0.3067
x1 = 0.2995	0.3404
x1 = 0.3884	0.3564
x1 = 0.4879	0.388
x1 = 0.7244	0.4602

CCCCN + CCCCCC
viscosity [mPa·s]
Conditions	298.15 K	303.15 K	313.15 K
101.3 kPa, x2 = 0.0995	0.4331	–	0.3573
101.3 kPa, x2 = 0.2009	0.4017	–	0.3331
101.3 kPa, x2 = 0.2987	0.3782	–	0.3159
101.3 kPa, x2 = 0.4003	0.3564	–	0.3002
101.3 kPa, x2 = 0.4987	0.3397	–	0.2875
101.3 kPa, x2 = 0.5995	0.3249	–	0.2767
101.3 kPa, x2 = 0.7021	0.3127	–	0.2675
101.3 kPa, x2 = 0.8015	0.3036	–	0.2608
101.3 kPa, x2 = 0.8999	0.2974	–	0.2562
101.33 kPa, x1 = 0.1342	–	0.266	–
101.33 kPa, x1 = 0.2674	–	0.262	–
101.33 kPa, x1 = 0.4006	–	0.245	–
101.33 kPa, x1 = 0.5268	–	0.252	–
101.33 kPa, x1 = 0.6349	–	0.281	–
101.33 kPa, x1 = 0.7491	–	0.318	–
101.33 kPa, x1 = 0.8215	–	0.368	–
101.33 kPa, x1 = 0.9178	–	0.445	–

CCCC(=O)OCC + CCCCCCC
viscosity [mPa·s], 101.3 kPa
Conditions	308.15 K	318.15 K
x1 = 0.0502	0.356	0.325
x1 = 0.1025	0.36	0.33
x1 = 0.2204	0.373	0.344
x1 = 0.2988	0.383	0.354
x1 = 0.3991	0.398	0.371
x1 = 0.5188	0.421	0.393
x1 = 0.6073	0.442	0.415
x1 = 0.6954	0.467	0.436
x1 = 0.8003	0.499	0.469
x1 = 0.9011	0.544	0.518
x1 = 0.9513	0.57	0.539

CCCCC(CC)COP(=O)(OCC(CC)CCCC)OCC(CC)CCCC (stereo not drawn) + CCCCCCC
viscosity [mPa·s], 101 kPa
Conditions	x1 = 0.0981	x1 = 0.2035	x1 = 0.2861	x1 = 0.4005	x1 = 0.4721	x1 = 0.5804	x1 = 0.7028	x1 = 0.8061	x1 = 0.9053
298.15 K	0.691	1.161	1.648	2.531	3.204	4.44	6.106	7.818	9.599
303.15 K	0.645	1.071	1.509	2.267	2.848	3.886	5.277	6.674	8.111
308.15 K	0.604	0.992	1.377	2.046	2.547	3.434	4.599	5.747	6.914

CCCCN + CCCCCCC
303.15 K, 101.33 kPa
Conditions	viscosity [mPa·s]
x1 = 0.1262	0.355
x1 = 0.243	0.345
x1 = 0.3214	0.358
x1 = 0.4018	0.358
x1 = 0.4973	0.362
x1 = 0.6195	0.381
x1 = 0.7804	0.434
x1 = 0.8723	0.462

CCCCC(CC)COP(=O)(OCC(CC)CCCC)OCC(CC)CCCC (stereo not drawn) + CCCCCCCC
viscosity [mPa·s], 101 kPa
Conditions	x1 = 0.098	x1 = 0.1989	x1 = 0.2979	x1 = 0.381	x1 = 0.489	x1 = 0.5902	x1 = 0.693	x1 = 0.7952	x1 = 0.9044
298.15 K	0.83	1.287	1.852	2.52	3.555	4.707	6.118	7.688	9.668
303.15 K	0.773	1.183	1.674	2.264	3.136	4.108	5.242	6.565	8.204
308.15 K	0.722	1.074	1.498	2.016	2.759	3.592	4.585	5.632	6.964

CCCCN + CCCCCCCC
303.15 K, 101.33 kPa
Conditions	viscosity [mPa·s]
x1 = 0.1275	0.462
x1 = 0.2962	0.441
x1 = 0.4015	0.433
x1 = 0.5214	0.428
x1 = 0.6438	0.42
x1 = 0.7573	0.434
x1 = 0.9231	0.478

CCC(C)(C)C + CCCCCCCCCCCC
298 K, 101.33 kPa
Conditions	viscosity [mPa·s]
x1 = 0.0995	1.264
x1 = 0.2015	1.152
x1 = 0.2997	1.056
x1 = 0.3975	0.944
x1 = 0.5013	0.8256
x1 = 0.6011	0.7202
x1 = 0.7	0.6152
x1 = 0.7997	0.5206
x1 = 0.9002	0.4256

CCC(C)(C)C + CCCCCCCCCCCCCCCC
298 K, 101.33 kPa
Conditions	viscosity [mPa·s]
x1 = 0.1107	2.735
x1 = 0.2098	2.405
x1 = 0.3108	2.071
x1 = 0.4014	1.788
x1 = 0.5013	1.486
x1 = 0.6057	1.211
x1 = 0.7048	0.9511
x1 = 0.8022	0.711
x1 = 0.9014	0.5046

CCCCN + CCCCCCCCCCO
viscosity [mPa·s], 101.33 kPa
Conditions	x1 = 0.1009	x1 = 0.1875	x1 = 0.2926	x1 = 0.4082	x1 = 0.4885	x1 = 0.5888	x1 = 0.7198	x1 = 0.8119	x1 = 0.9029
303.15 K	7.619	6.568	5.323	4.051	3.232	2.336	1.398	0.9303	0.6273
313.15 K	5.926	5.059	4.058	3.072	2.462	1.813	1.151	0.8181	0.5744

CCCCN + CCCCCCCCO
viscosity [mPa·s], 101.33 kPa
Conditions	303.15 K	313.15 K	323.15 K
x1 = 0.094	5.27	3.765	–
x1 = 0.1	5.075	3.779	2.828
x1 = 0.1949	4.391	3.129	–
x1 = 0.2011	4.061	3.065	2.358
x1 = 0.288	3.626	2.585	–
x1 = 0.3	3.239	2.487	1.942
x1 = 0.4015	2.547	1.984	1.576
x1 = 0.4199	2.665	1.929	–
x1 = 0.5003	1.995	1.59	1.289
x1 = 0.5164	2.065	1.521	–
x1 = 0.6002	1.528	1.235	1.021
x1 = 0.619	1.523	1.154	–
x1 = 0.7003	1.141	0.945	0.791
x1 = 0.7192	1.103	0.8639	–
x1 = 0.7998	0.847	0.716	0.614
x1 = 0.8084	0.8208	0.6658	–
x1 = 0.9	0.623	0.537	0.466
x1 = 0.9064	0.5902	0.5049	–

CCCCN + CCCCCCCO
viscosity [mPa·s], 101.33 kPa
Conditions	303.15 K	313.15 K	323.15 K
x1 = 0.0997	4.157	3.079	2.366
x1 = 0.122	3.964	2.931	–
x1 = 0.1998	3.439	2.557	–
x1 = 0.201	3.328	2.535	1.993
x1 = 0.2914	2.866	2.134	–
x1 = 0.3	2.671	2.069	1.627
x1 = 0.4035	2.125	1.684	1.346
x1 = 0.4133	2.169	1.636	–
x1 = 0.4897	1.797	1.363	–
x1 = 0.5	1.669	1.336	1.094
x1 = 0.6006	1.294	1.056	0.879
x1 = 0.6172	1.284	0.9879	–
x1 = 0.7002	0.975	0.797	0.676
x1 = 0.7147	0.9851	0.7769	–
x1 = 0.8001	0.77	0.655	0.563
x1 = 0.8091	0.761	0.6198	–
x1 = 0.8999	0.606	0.518	0.451
x1 = 0.907	0.5793	0.4903	–

CCCC(=O)OCC(COC(=O)CCC)OC(=O)CCC + CCCCCCO
viscosity [mPa·s], 101.33 kPa
Conditions	x1 = 0.1	x1 = 0.2	x1 = 0.3	x1 = 0.4	x1 = 0.5	x1 = 0.6	x1 = 0.7	x1 = 0.8	x1 = 0.9
298 K	4	4.09	4.3	4.65	5.05	5.56	6.15	6.84	7.68
303 K	3.47	3.54	3.72	4	4.36	4.8	5.27	5.86	6.54
308 K	3.02	3.08	3.26	3.49	3.79	4.15	4.57	5.07	5.63
313 K	2.65	2.71	2.85	3.07	3.33	3.64	4	4.42	4.9
